From patent publication US9371280B2, “Substituted pyrrolidine-2-carboxamides” (Hoffmann-La Roche Inc., priority 2012, dated 2016) come the findings set out here.

Counter-ions that a name gives are not always drawn.

For the first assay, the target named is interaction between p53 and MDM2 proteins (recombinant GST-tagged MDM2) (Homo sapiens, UniProt Q00987). As to the kind of experiment: HTRF assay of inhibition of the p53-MDM2 interaction (GST-MDM2 / biotinylated p53 peptide).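 Also: FRET read-out from Eu-labelled anti-GST antibody to streptavidin-APC, with 90 nM N-terminally biotinylated p53 peptide and 160 ng/ml GST-MDM2 in Tris-borate saline containing 1 mM DTT, 384-well format.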 The conditions noted are these: HTRF, 0.02% BSA, 37° C. 1 h. Type of assay: binding.
interaction between p53 and MDM2 proteins (recombinant GST-tagged MDM2), sequence (Q00987 whole entry): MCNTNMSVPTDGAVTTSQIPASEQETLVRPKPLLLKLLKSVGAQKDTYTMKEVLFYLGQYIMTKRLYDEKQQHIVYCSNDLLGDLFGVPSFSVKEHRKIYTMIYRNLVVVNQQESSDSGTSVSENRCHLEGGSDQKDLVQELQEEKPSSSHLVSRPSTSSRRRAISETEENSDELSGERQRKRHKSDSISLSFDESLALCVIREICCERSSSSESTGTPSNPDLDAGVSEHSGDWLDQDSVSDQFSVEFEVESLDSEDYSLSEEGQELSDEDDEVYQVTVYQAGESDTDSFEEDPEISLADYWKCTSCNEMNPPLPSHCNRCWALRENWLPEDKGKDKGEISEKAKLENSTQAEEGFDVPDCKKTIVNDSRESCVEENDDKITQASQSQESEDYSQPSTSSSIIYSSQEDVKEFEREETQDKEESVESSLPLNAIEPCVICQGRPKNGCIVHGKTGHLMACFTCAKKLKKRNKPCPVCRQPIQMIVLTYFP
One may read the IC50 as the concentration that inhibits the measured activity by half. As to `COc1cc(C(=O)OCCOCCOCCO)ccc1NC(=O)[C@@H]1N[C@@H](CC(C)(C)C)[C@](C#N)(c2ccc(Cl)cc2F)[C@H]1c1cccc(Cl)c1F` [Example 47, 4-{[(2R,3S,4R,5S)-4-(4-Chloro-2-fluoro-phenyl)-3-(3-chloro-2-fluoro-phenyl)-4-cyano-5-(2,2-dimethyl-propyl)-pyrrolidine-2-carbonyl]-amino}-3-methoxy-benzoic acid 2-[2-(2-hydroxy-ethoxy)-ethoxy]-ethyl ester, hydrochloride], the half-maximal inhibitory concentration (IC50) is 0.00834 µM.
Regarding `CCN(CC)CCOC(=O)c1ccc(NC(=O)[C@@H]2N[C@@H](CC(C)(C)C)[C@](C#N)(c3ccc(Cl)cc3F)[C@H]2c2cccc(Cl)c2F)c(OC)c1` [Example 16, 4-{[(2R,3S,4R,5S)-4-(4-Chloro-2-fluoro-phenyl)-3-(3-chloro-2-fluoro-phenyl)-4-cyano-5-(2,2-dimethyl-propyl)-pyrrolidine-2-carbonyl]-amino}-3-methoxy-benzoic acid 2-diethylamino-ethyl ester], the IC50 came to 0.0501 µM.
On to `COc1cc(C(=O)OCCOC(=O)[C@@H](NC(=O)[C@H](C)N(C)C(=O)OC(C)(C)C)C(C)C)ccc1NC(=O)[C@@H]1N[C@@H](CC(C)(C)C)[C@](C#N)(c2ccc(Cl)cc2F)[C@H]1c1cccc(Cl)c1F` [Example 33, 4-{[(2R,3S,4R,5S)-4-(4-Chloro-2-fluoro-phenyl)-3-(3-chloro-2-fluoro-phenyl)-4-cyano-5-(2,2-dimethyl-propyl)-pyrrolidine-2-carbonyl]-amino}-3-methoxy-benzoic acid 2-[(S)-3-methyl-2-((S)-2-tert-butoxycarbonyl-methylamino-propionylamino)-butyryloxy]-ethyl ester], for which the IC50 amounted to 0.0199 µM.
Consider `COC(=O)COC(=O)c1ccc(NC(=O)[C@@H]2N[C@@H](CC(C)(C)C)[C@](C#N)(c3ccc(Cl)cc3F)[C@H]2c2cccc(Cl)c2F)c(OC)c1` [Example 35, 4-{[(2R,3S,4R,5S)-4-(4-Chloro-2-fluoro-phenyl)-3-(3-chloro-2-fluoro-phenyl)-4-cyano-5-(2,2-dimethyl-propyl)-pyrrolidine-2-carbonyl]-amino}-3-methoxy-benzoic acid methoxycarbonylmethyl ester], for which the IC50 is 0.0125 µM.
Turning to `COc1cc(C(=O)OCC(=O)NCC2COC(C)(C)O2)ccc1NC(=O)[C@@H]1N[C@@H](CC(C)(C)C)[C@](C#N)(c2ccc(Cl)cc2F)[C@H]1c1cccc(Cl)c1F` (stereo partly drawn) [Example 67, 4-{[(2R,3S,4R,5S)-4-(4-Chloro-2-fluoro-phenyl)-3-(3-chloro-2-fluoro-phenyl)-4-cyano-5-(2,2-dimethyl-propyl)-pyrrolidine-2-carbonyl]-amino}-3-methoxy-benzoic acid [(2,2-dimethyl-[1,3]dioxolan-4-ylmethyl)-carbamoyl]-methyl ester], the IC50 amounted to 0.0118 µM.
Still for that read-out and setting: the result for `COc1cc(C(=O)OCC(=O)N[C@@H](CCC(=O)OCc2ccccc2)C(=O)OCc2ccccc2)ccc1NC(=O)[C@@H]1N[C@@H](CC(C)(C)C)[C@](C#N)(c2ccc(Cl)cc2F)[C@H]1c1cccc(Cl)c1F` [Example 70, (S)-2-[2-(4-{[(2R,3S,4R,5S)-4-(4-Chloro-2-fluoro-phenyl)-3-(3-chloro-2-fluoro-phenyl)-4-cyano-5-(2,2-dimethyl-propyl)-pyrrolidine-2-carbonyl]-amino}-3-methoxy-benzoyloxy)-acetylamino]-pentanedioic acid dibenzyl ester] reads 0.0564 µM; that for `CCN(CC)CCNC(=O)c1ccc(NC(=O)[C@@H]2N[C@@H](CC(C)(C)C)[C@](C#N)(c3ccc(Cl)cc3F)[C@H]2c2cccc(Cl)c2F)c(OC)c1` [Example 23, (2R,3S,4R,5S)-4-(4-Chloro-2-fluoro-phenyl)-3-(3-chloro-2-fluoro-phenyl)-4-cyano-5-(2,2-dimethyl-propyl)-pyrrolidine-2-carboxylic acid [4-(2-diethylamino-ethylcarbamoyl)-2-methoxy-phenyl]-amide, hydrochloride], 0.00934 µM.
As to `COCCOC(=O)c1ccc(NC(=O)[C@@H]2N[C@@H](CC(C)(C)C)[C@](C#N)(c3ccc(Cl)cc3F)[C@H]2c2cccc(Cl)c2F)c(OC)c1` [Example 10, 2-Methoxyethyl 4-((2R,3S,4R,5S)-3-(3-chloro-2-fluorophenyl)-4-(4-chloro-2-fluorophenyl)-4-cyano-5-neopentylpyrrolidine-2-carboxamido)-3-methoxybenzoate], the IC50 is 0.0107 µM.
Take `COCCOCCOCCOC(=O)COC(=O)c1ccc(NC(=O)[C@@H]2N[C@@H](CC(C)(C)C)[C@](C#N)(c3ccc(Cl)cc3F)[C@H]2c2cccc(Cl)c2F)c(OC)c1` [Example 72, 4-{[(2R,3S,4R,5S)-4-(4-Chloro-2-fluoro-phenyl)-3-(3-chloro-2-fluoro-phenyl)-4-cyano-5-(2,2-dimethyl-propyl)-pyrrolidine-2-carbonyl]-amino}-3-methoxy-benzoic acid 2-[2-(2-methoxy-ethoxy)-ethoxy]-ethoxycarbonylmethyl ester]: the 50% inhibitory concentration (IC50) worked out at 0.0203 µM.
As to `COc1cc(C(=O)OCCOP(=O)(OC(C)(C)C)OC(C)(C)C)ccc1NC(=O)[C@@H]1N[C@@H](CC(C)(C)C)[C@](C#N)(c2ccc(Cl)cc2F)[C@H]1c1cccc(Cl)c1F` [Example 12, 2-(Di-tert-butoxyphosphoryloxy)ethyl 4-((2R,3S,4R,5S)-3-(3-chloro-2-fluorophenyl)-4-(4-chloro-2-fluorophenyl)-4-cyano-5-neopentylpyrrolidine-2-carboxamido)-3-methoxybenzoate], the IC50 was determined as 0.00959 µM.
Take `COc1cc(C(=O)OC2CCN(C)CC2)ccc1NC(=O)[C@@H]1N[C@@H](CC(C)(C)C)[C@](C#N)(c2ccc(Cl)cc2F)[C@H]1c1cccc(Cl)c1F` [Example 17, 4-{[(2R,3S,4R,5S)-4-(4-Chloro-2-fluoro-phenyl)-3-(3-chloro-2-fluoro-phenyl)-4-cyano-5-(2,2-dimethyl-propyl)-pyrrolidine-2-carbonyl]-amino}-3-methoxy-benzoic acid 1-methyl-piperidin-4-yl ester]: the IC50 amounted to 0.0115 µM.
As for `COc1cc(C(=O)OCCOC(=O)CN)ccc1NC(=O)[C@@H]1N[C@@H](CC(C)(C)C)[C@](C#N)(c2ccc(Cl)cc2F)[C@H]1c1cccc(Cl)c1F` [Example 30, 4-{[(2R,3S,4R,5S)-4-(4-Chloro-2-fluoro-phenyl)-3-(3-chloro-2-fluoro-phenyl)-4-cyano-5-(2,2-dimethyl-propyl)-pyrrolidine-2-carbonyl]-amino}-3-methoxy-benzoic acid 2-(2-amino-acetoxy)-ethyl ester], the concentration for half-maximal inhibition (IC50) worked out at 0.0172 µM.
For `COCCOCCOCCOCCOC(=O)c1ccc(NC(=O)[C@@H]2N[C@@H](CC(C)(C)C)[C@](C#N)(c3ccc(Cl)cc3F)[C@H]2c2cccc(Cl)c2F)c(OC)c1` [Example 49, 4-{[(2R,3S,4R,5S)-4-(4-Chloro-2-fluoro-phenyl)-3-(3-chloro-2-fluoro-phenyl)-4-cyano-5-(2,2-dimethyl-propyl)-pyrrolidine-2-carbonyl]-amino}-3-methoxy-benzoic acid 2-{2-[2-(2-methoxy-ethoxy)-ethoxy]-ethoxy}-ethyl ester, hydrochloride], the IC50 stood at 0.0139 µM.
For the compound `COc1cc(C(=O)OCCOCCN(C)C)ccc1NC(=O)[C@@H]1N[C@@H](CC(C)(C)C)[C@](C#N)(c2ccc(Cl)cc2F)[C@H]1c1cccc(Cl)c1F` [Example 46, 4-{[(2R,3S,4R,5S)-4-(4-Chloro-2-fluoro-phenyl)-3-(3-chloro-2-fluoro-phenyl)-4-cyano-5-(2,2-dimethyl-propyl)-pyrrolidine-2-carbonyl]-amino}-3-methoxy-benzoic acid 2-(2-dimethylamino-ethoxy)-ethyl ester, hydrochloride], the IC50 came out at 0.0142 µM.
With `COc1cc(C(=O)OCC(=O)N2CCN(C)CC2)ccc1NC(=O)[C@@H]1N[C@@H](CC(C)(C)C)[C@](C#N)(c2ccc(Cl)cc2F)[C@H]1c1cccc(Cl)c1F` [Example 64, 4-{[(2R,3S,4R,5S)-4-(4-Chloro-2-fluoro-phenyl)-3-(3-chloro-2-fluoro-phenyl)-4-cyano-5-(2,2-dimethyl-propyl)-pyrrolidine-2-carbonyl]-amino}-3-methoxy-benzoic acid 2-(4-methyl-piperazin-1-yl)-2-oxo-ethyl ester, hydrochloride], the IC50 was 0.0116 µM.
On to `COc1cc(C(=O)OCCOP(=O)(O)O)ccc1NC(=O)[C@@H]1N[C@@H](CC(C)(C)C)[C@](C#N)(c2ccc(Cl)cc2F)[C@H]1c1cccc(Cl)c1F` [Example 13, 2-(Phosphonooxy)ethyl 4-((2R,3S,4R,5S)-3-(3-chloro-2-fluorophenyl)-4-(4-chloro-2-fluorophenyl)-4-cyano-5-neopentylpyrrolidine-2-carboxamido)-3-methoxybenzoate, trifluoroacetate salt], for which the IC50 came to 0.00454 µM.
In the case of `C=CCOC(=O)[C@H](CCCCNC(=O)OC(C)(C)C)NC(=O)COC(=O)c1ccc(NC(=O)[C@@H]2N[C@@H](CC(C)(C)C)[C@](C#N)(c3ccc(Cl)cc3F)[C@H]2c2cccc(Cl)c2F)c(OC)c1` [Example 78, 4-{[(2R,3S,4R,5S)-4-(4-Chloro-2-fluoro-phenyl)-3-(3-chloro-2-fluoro-phenyl)-4-cyano-5-(2,2-dimethyl-propyl)-pyrrolidine-2-carbonyl]-amino}-3-methoxy-benzoic acid ((S)-1-allyloxycarbonyl-5-tert-butoxycarbonylamino-pentylcarbamoyl)-methyl ester], the IC50 was determined as 0.0166 µM.
With `COc1cc(C(=O)OCCN2CCN(CCO)CC2)ccc1NC(=O)[C@@H]1N[C@@H](CC(C)(C)C)[C@](C#N)(c2ccc(Cl)cc2F)[C@H]1c1cccc(Cl)c1F` [Example 61, 4-{[(2R,3S,4R,5S)-4-(4-Chloro-2-fluoro-phenyl)-3-(3-chloro-2-fluoro-phenyl)-4-cyano-5-(2,2-dimethyl-propyl)-pyrrolidine-2-carbonyl]-amino}-3-methoxy-benzoic acid 2-[4-(2-hydroxy-ethyl)-piperazin-1-yl]-ethyl ester], the IC50 was 0.0114 µM.

The assay is the same for the next values; noted with them: read-out: IC50 (uM, 0.02% BSA); HTRF, 0.02% BSA, 37° C. 1 h.
For the compound “4-{[(2R,3S,4R,5S)-4-(4-Chloro-2-fluoro-phenyl)-3-(3-chloro-2-fluoro-phenyl)-4-cyano-5-(2,2-dimethyl-propyl)-pyrrolidine-2-carbonyl]-amino}-3-methoxy-benzoic acid, dodecaethylene glycol ester [Example 43]”, the IC50 was determined as 0.0062 µM.
